According to PubChem BioAssay AID1963434 (Molecular Pharmacology Branch, DTP, NCI, 2024):

Test system: 755483-174-R-J1-PDC complex spheroid growth, percent test/control
Experiment: Anticancer human tumor 755483-174-R-J1-PDC patient-derived rhabdomyosarcoma cell line growth inhibition [Asc]
Conditions: for IC50: curve of first compound; for viability, T/C: stronger effect = lower value
How it was run: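 Stromal components (HUVEC and hMSC) are co-assembled with the cancer cells into multicellular spheroids. Drugs are then added singly or paired, at concentrations falling by half-log increments from a clinically achievable maximum, capped at 10 microM without known Cmax.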

[1] = second compound 0.01 µM, first compound 0.0316 µM
[2] = second compound 0.01 µM, first compound 0.1 µM
[3] = second compound 0.01 µM, first compound 0.316 µM
[4] = second compound 0.01 µM, first compound 1 µM
[5] = second compound 0.01 µM, first compound 3.16 µM
[6] = second compound 0.01 µM, first compound 10 µM
[7] = second compound 0.0316 µM, first compound 0.0316 µM
[8] = second compound 0.0316 µM, first compound 0.1 µM
[9] = second compound 0.0316 µM, first compound 0.316 µM
[10] = second compound 0.0316 µM, first compound 1 µM
[11] = second compound 0.0316 µM, first compound 3.16 µM
[12] = second compound 0.0316 µM, first compound 10 µM
[13] = second compound 0.1 µM, first compound 0.0316 µM
[14] = second compound 0.1 µM, first compound 0.1 µM
[15] = second compound 0.1 µM, first compound 0.316 µM
[16] = second compound 0.1 µM, first compound 1 µM
[17] = second compound 0.1 µM, first compound 3.16 µM
[18] = second compound 0.1 µM, first compound 10 µM
[19] = second compound 0.316 µM, first compound 0.0316 µM
[20] = second compound 0.316 µM, first compound 0.1 µM
[21] = second compound 0.316 µM, first compound 0.316 µM
[22] = second compound 0.316 µM, first compound 1 µM
[23] = second compound 0.316 µM, first compound 3.16 µM
[24] = second compound 0.316 µM, first compound 10 µM
[25] = second compound 1 µM, first compound 0.0316 µM
[26] = second compound 1 µM, first compound 0.1 µM
[27] = second compound 1 µM, first compound 0.316 µM
[28] = second compound 1 µM, first compound 1 µM
[29] = second compound 1 µM, first compound 3.16 µM
[30] = second compound 1 µM, first compound 10 µM
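Note: spheroids exposed to compounds for seven days before readout.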

| SMILES | IC50 (second compound 0.01 µM) [nM] | IC50 (second compound 0.0316 µM) [nM] | IC50 (second compound 0.1 µM) [nM] | IC50 (second compound 0.316 µM) [nM] | IC50 (second compound 1 µM) [nM] | viability, T/C [1] [%] | viability, T/C [2] [%] | viability, T/C [3] [%] | viability, T/C [4] [%] | viability, T/C [5] [%] | viability, T/C [6] [%] | viability, T/C [7] [%] | viability, T/C [8] [%] | viability, T/C [9] [%] | viability, T/C [10] [%] | viability, T/C [11] [%] | viability, T/C [12] [%] | viability, T/C [13] [%] | viability, T/C [14] [%] | viability, T/C [15] [%] | also measured |
| --- | --- | --- | --- | --- | --- | --- | --- | --- | --- | --- | --- | --- | --- | --- | --- | --- | --- | --- | --- | --- | --- |
| C#Cc1c(F)ccc2cc(O)cc(-c3ncc4c(N5CC6CCC(C5)N6)nc(OCC56CCCN5CC(F)C6)nc4c3F)c12 (stereo not given) + CNC(C)C(=O)NC1CN(S(=O)(=O)c2cccc(S(=O)(=O)N3CCC4CCC(C(=O)NC(c5ccccc5)c5ccccc5)N4C(=O)C(NC(=O)C(C)NC)C3)c2)CCC2CCC(C(=O)NC(c3ccccc3)c3ccccc3)N2C1=O | < 31.6 | < 31.6 | < 31.6 | < 31.6 | < 31.6 | 46.4 | 44.1 | 55.5 | 54.6 | 36.6 | 2.18 | 33.2 | 36 | 38.7 | 48.3 | 36.4 | 2.06 | 35.9 | 42.6 | 54 | viability, T/C [16]: 28.7%; viability, T/C [17]: 24.8%; viability, T/C [18]: 1.01%; viability, T/C [19]: 32.1%; viability, T/C [20]: 33.9%; viability, T/C [21]: 30.9%; viability, T/C [22]: 34.9%; viability, T/C [23]: 13.9%; viability, T/C [24]: 0.34%; viability, T/C [25]: 17.1%; viability, T/C [26]: 31.2%; viability, T/C [27]: 31.7%; viability, T/C [28]: 22.8%; viability, T/C [29]: 10.5%; viability, T/C [30]: 0.34% |
| C=C(F)C(=O)N1CCN(c2nc(OCC3CCCN3C)nc3c2CCN(c2cccc4cccc(Cl)c24)C3)CC1CC#N (stereo not given) + CNC(C)C(=O)NC1CN(S(=O)(=O)c2cccc(S(=O)(=O)N3CCC4CCC(C(=O)NC(c5ccccc5)c5ccccc5)N4C(=O)C(NC(=O)C(C)NC)C3)c2)CCC2CCC(C(=O)NC(c3ccccc3)c3ccccc3)N2C1=O | 585 | 336 | 428 | < 31.6 | < 31.6 | 68.4 | 62 | 58.9 | 40.6 | 3.47 | 0.12 | 48.5 | 56.7 | 50.1 | 32 | 2.46 | 0.12 | 40 | 63.9 | 66.2 | viability, T/C [16]: 31.1%; viability, T/C [17]: 17.1%; viability, T/C [18]: 0.12%; viability, T/C [19]: 26.6%; viability, T/C [20]: 30.6%; viability, T/C [21]: 38.7%; viability, T/C [22]: 23.3%; viability, T/C [23]: 2.01%; viability, T/C [24]: 0.12%; viability, T/C [25]: 29.7%; viability, T/C [26]: 34.6%; viability, T/C [27]: 21.6%; viability, T/C [28]: 13.1%; viability, T/C [29]: 0.83%; viability, T/C [30]: 0.19% |
